Source: paper PMC10439952, “JT002, a small molecule inhibitor of the NLRP3 inflammasome for the treatment of autoinflammatory disorders” (Scientific Reports, 2023)

Tests used:
[1] = test system: murine house dust mite model of severe corticosteroid-resistant asthma; design: method as in PMID 28528200; details: i.p. administration; cited from earlier work
[2] = design: method as in PMID 26206150; details: daily dose of 1200 mg; development terminated; cited from earlier work
[3] = test system: autocatalytic cleavage of pro-caspase-1 (p45) into the p10 subunit; assay: Western blot for caspase-1 p10 in LPS + nigericin stimulated mouse BMDM lysates and supernatants; format: cell-based; details: LPS + nigericin treated mBMDMs, compound 10 µM
Description: BMDMs were activated with LPS and nigericin as described above and were lysed in situ with 50 μL of 4× NuPAGE LDS sample buffer (Fisher Scientific, Hampton, NH) + 5% β-mercaptoethanol and prepared for polyacrylamide gel electrophoresis. Samples were run on NuPAGE Bis–Tris gels (Fisher Scientific, Hampton, NH) and transferred to polyvinylidene difluoride (PVDF) membranes (Fisher Scientific, Hampton, NH) using the iBlot® 2 Dry Blotting System (Fisher Scientific, Hampton, NH). Washed PVDF membranes were blocked and then probed with the following primary antibodies: procaspase-1 + p10 + p12 [EPR16883] (Abcam, Cambridge, MA), β-actin (AC-74, Sigma-Aldrich, St. Louis, MO) and NLRP3 [Cryo-2] (AdipoGen Life Sciences, San Diego, CA). Bound primary antibodies were detected using HRP-labeled secondary antibodies and membranes were imaged with an Azure c300 imager (Azure Biosystems, Dublin, CA). Bands were quantitated using ImageJ software.

Compound | bronchoalveolar lavage IL-1β concentrations [1] | bronchoalveolar lavage neutrophilia [1] | development of airway hyperresponsiveness [1] | liver safety in the clinic [2] | formation of the caspase-1 p10 subunit (autocatalytic cleavage of pro-caspase-1) [3] | p10 component in cell supernatants [3]
CC(C)(O)c1coc(S(=O)(=O)NC(=O)Nc2c3c(cc4c2CCC4)CCC3)c1 [MCC950] | reduced | reduced | completely prevented | drug induced liver injury (DILI) detected | blocked formation of the p10 subunit and its release from the cell | 
CCOC(=O)C1=CCCC[C@H]1S(=O)(=O)Nc1ccc(F)cc1Cl [TAK242, ethyl (6R)-6-[N-(2-Chloro-4-fluorophenyl)sulfamoyl]cyclohex-1-ene-1-carboxylate] |  |  |  |  | did not inhibit the autocatalytic cleavage of pro-caspase-1 into the p10 subunit | appearance of the p10 component in cell supernatants
C[C@H](NC(=O)C(=O)Nc1ccccc1C(C)(C)C)C(=O)N[C@@H](CC(=O)O)C(=O)COc1c(F)c(F)cc(F)c1F [emricasan] |  |  |  |  | did not inhibit the autocatalytic cleavage of pro-caspase-1 into the p10 subunit | 
